Assay results: patent US12679827B2, “Pyrimidine compounds and their pharmaceutical uses” (National Health Research Institutes, priority 2020, dated 2026)

Assays:
NCI-H446 = test: Small-cell-lung cancer cell proliferation inhibition assay (PrestoBlue), NCI-H446; assay type: cell-based; settings: Homo sapiens, cMYC amplified SCLC cells, 72 hours
Procedure: (§1) Small cell lung cancer cells NCI-H82 (ATCC HTB-175, cMYC amplified), NCI-H446 (ATCC® HTB-171, cMYC amplified), and NCI-H69 (ATCC® HTB-119, MYCN amplified) were seeded at the density of 5000-10000 cells per well in 96-well plates. After 24 hours, the cancer cells were treated with each compound at various concentrations (0-10 μM) and then incubated for another 72 hours. IC50 values were computed based on duplicated 8-point titration.

NCI-H69 = test: Small-cell-lung cancer cell proliferation inhibition assay (PrestoBlue), NCI-H69; assay type: cell-based; settings: Homo sapiens, MYCN amplified SCLC cells, 72 hours
Procedure: as §1

NCI-H82 = test: Small-cell-lung cancer cell proliferation inhibition assay (PrestoBlue), NCI-H82; assay type: cell-based; settings: Homo sapiens, cMYC amplified SCLC cells, 72 hours
Procedure: as §1

[1] = biological target: T1, human Aurora A (amino acids 123-401) (Homo sapiens, UniProt O14965); test: Kinase-Glo Luminescent Kinase assay, in vitro inhibition of Aurora A kinase activity; assay type: biochemical; settings: recombinant GST-tagged Aurora A, 5.0 μM ATP, 37° C., 120 minutes
T1 construct: human Aurora A (amino acids 123-401) was expressed in Sf9 insect cells; GST; made in house; host or cells: Sf9 insect cells
T1 sequence (O14965 123-401): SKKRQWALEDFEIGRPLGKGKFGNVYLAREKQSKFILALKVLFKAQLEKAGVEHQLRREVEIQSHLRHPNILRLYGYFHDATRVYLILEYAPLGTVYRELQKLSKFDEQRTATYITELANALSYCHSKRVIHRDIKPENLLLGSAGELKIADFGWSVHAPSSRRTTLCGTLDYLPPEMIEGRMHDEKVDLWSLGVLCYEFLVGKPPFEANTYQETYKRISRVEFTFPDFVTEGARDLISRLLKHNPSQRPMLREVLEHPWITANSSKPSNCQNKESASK
Procedure: Recombinant glutathione S-transferase (GST)-tagged N-terminal truncated human Aurora A (amino acids 123-401) was expressed in Sf9 insect cells and then purified by glutathione affinity chromatography to afford recombinant Aurora A. Recombinant Aurora A (150 ng) was reacted with each test compound (100 nM) in 50 μL of 50 mM Tris-HCl pH 7.4, 10 mM NaCl, 10 mM MgCl2, 0.01% bovine serum albumin, 5.0 μM ATP, 1 mM dithiothreitol, 15 μM tetra(-LRRASLG) peptide at 37° C. for 120 minutes. Then, to the reaction was added 50 μL of Kinase-Glo Plus Reagent. The resulting mixture was incubated at 25° C. for 20 minutes. A 70 μL aliquot of the mixture was transferred to a black microliter plate. Luminescence was measured using a Wallac Vector 1420 multilabel counter (PerkinElmer, USA).

Row | SMILES | IC50 (NCI-H446) [µM] | IC50 (NCI-H69) [µM] | IC50 (NCI-H82) [µM] | IC50 [1] [µM]
1 | CCOC(=O)n1nc(C)cc1Nc1cc(N2CCN(CC)CC2)nc(NC2CCN(C(=O)c3cccc(Cl)c3F)CC2)n1 [Compound 127] | < 1 | < 1 | < 1 | 
2 | Cc1cc(Nc2cc(N3CCC(N(C)C)CC3)nc(N[C@H]3CCN(C(=O)c4cccc(Cl)c4F)C3)n2)n[nH]1 [Compound 21] | < 1 | < 1 | < 1 | < 0.1
3 | Cc1cc(Nc2cc(N3C[C@@H](C)N(C)[C@@H](C)C3)nc(NC3CCN(C(=O)c4cccc(Cl)c4F)CC3)n2)n[nH]1 [Compound 100] | < 1 | < 1 | < 1 | < 0.1
4 | COCCN1CCN(c2cc(Nc3cc(C)[nH]n3)nc(N[C@H]3CCN(C(=O)c4ccc(Cl)cc4F)C3)n2)CC1 [Compound 13] |  | < 1 | < 1 | < 0.1
5 | Cc1cc(Nc2cc(N3C[C@@H](C)N[C@@H](C)C3)nc(N[C@H]3CCN(C(=O)c4ccc(Cl)cc4F)C3)n2)n[nH]1 [Compound 10] | < 1 | < 1 | < 1 | 
6 | CCN1CCN(c2cc(Nc3cc(C)n(C(=O)OCCOC)n3)nc(N[C@H]3CCN(C(=O)c4ccc(Cl)cc4F)C3)n2)CC1 [Compound 83] | < 1 | < 1 | < 1 | 
7 | CCC(=O)n1nc(Nc2cc(N3CCN(CC)CC3)nc(N[C@H]3CCN(C(=O)c4ccc(Cl)cc4F)C3)n2)cc1C [Compound 72] | < 1 | < 1 | < 1 | 
8 | Cc1cc(Nc2cc(N3CCC(N(C)C)CC3)nc(NC3CCN(C(=O)c4cccc(Cl)c4F)CC3)n2)n[nH]1 [Compound 92] | < 1 | < 1 | < 1 | < 0.1
9 | COC[C@@H]1CCCN1c1cc(Nc2cc(C)[nH]n2)nc(NC2CCN(C(=O)c3cccc(Cl)c3F)CC2)n1 [Compound 104] |  | < 1 | < 1 | < 0.1
10 | COC1CCN(c2cc(Nc3cc(C)[nH]n3)nc(NC3CCN(C(=O)c4cccc(Cl)c4F)CC3)n2)CC1 [Compound 105] | < 1 | < 1 | < 1 | 
11 | CCN1CCN(c2cc(Nc3cc(C)[nH]n3)nc(N[C@H]3CCN(C(=O)c4ccc(Cl)c(F)c4F)C3)n2)CC1 [Compound 40] | < 1 |  | < 1 | < 0.1
12 | CCN1CCN(c2cc(Nc3cc(C)[nH]n3)nc(N[C@H]3CCN(S(=O)(=O)c4ccc(Cl)cc4Cl)C3)n2)CC1 [Compound 63] | < 1 |  | < 1 | < 0.1
13 | CCN1CCN(c2cc(Nc3cc(C)[nH]n3)nc(N[C@H]3CCN(C(=O)c4ccc(Cl)c(F)c4)C3)n2)CC1 [Compound 39] | < 1 |  | < 1 | < 0.1
14 | Cc1cc(Nc2cc(N3CCN(C4COC4)CC3)nc(NC3CCN(C(=O)c4cccc(Cl)c4F)CC3)n2)n[nH]1 [Compound 103] | < 1 | < 1 | < 1 | < 0.1
15 | CC(=O)N1CCN(c2cc(Nc3cc(C)[nH]n3)nc(NC3CCN(C(=O)c4cccc(Cl)c4F)CC3)n2)CC1 [Compound 93] | < 1 | < 1 | < 1 | < 0.1
16 | Cc1cc(Nc2cc(N3CC(N(C)C)C3)nc(N[C@H]3CCN(C(=O)c4ccc(Cl)cc4F)C3)n2)n[nH]1 [Compound 8] | < 1 |  | < 1 | < 0.1
17 | CCN1CCN(c2cc(Nc3cc(C)[nH]n3)nc(N[C@H]3CCN(C(=O)c4c(F)cc(Cl)cc4F)C3)n2)CC1 [Compound 47] | < 1 |  | < 1 | < 0.1
18 | CCN1CCN(c2cc(Nc3cc(C)nn3C(=O)OCC(C)C)nc(N[C@H]3CCN(C(=O)c4ccc(Cl)cc4F)C3)n2)CC1 [Compound 78] | < 1 | < 1 | < 1 | 
19 | Cc1cc(Nc2cc(N3CCN(C)CC3)nc(N[C@H]3CCN(C(=O)c4ccc(Cl)cc4F)C3)n2)n[nH]1 [Compound 36] | < 1 |  | < 1 | < 0.1
20 | CCN1CCN(c2cc(Nc3cc(C)[nH]n3)nc(N[C@H]3CCN(C(=O)c4ccc(Cl)cc4Cl)C3)n2)CC1 [Compound 32] | < 1 |  | < 1 | < 0.1
